Reference: US6251868A, “Method for treating a human immunodeficiency virus infection” (Teijin Limited, priority 1998, dated 2001)
“Also recorded” adds a separate entry of the source.

How the values were obtained:
[1] = system: uninfected human T-lymphoid cell-line, H-9; assay: Viability and growth of uninfected H-9 cells (trypan-blue exclusion); type: cell-based; conditions: for cell viability (percentage of viable cells): through 6 days of incubation
Experimental: Every two or three days, 50-80% of cell suspensions were removed, and the same amount of fresh medium, with the same concentrations of the compound to be analyzed were added for further incubation. At the same time-points, viable cells were counted for calculating the relative cell growth value, by the trypan-blue exclusion method. At the same time, cell viability was also monitored as the percentage of viable cells in the total cell population.

[2] = system: HIV-1 production of H-9/IIIB cells; assay: HIV-1 p24 antigen production from H-9/IIIB cells at 1.25 or 2.5 mM (ELISA); type: cell-based, HIV-1 (HIV-1IIIB); conditions: for HIV-1 production (p24 antigen) from H-9/IIIB cells: days two and four; for production of HIV-1 from chronically infected cells: high doses, up to a concentration of 2.5 mM
Experimental: H-9/IIIB cells were washed thoroughly with phosphate-buffered saline (PBS) and resuspended at a density of 1×10^5 /ml in RPMI-1640/10% FBS with or without 1.25 or 2.5 mM of γ-GCE, GSH, or NAC. Since H-9/IIIB cells are constantly producing a large quantity of virus particles, stimulation with factors such as TNF-α or PMA were not required for carrying out these experiments. After two and four days, culture supernatant was removed, centrifuged to remove cells and debris, and evaluated by HIV-1 p24 antigen quantification. Measurement of the HIV-1 p24 antigen was performed by a sensitive enzyme-linked immunosorbant assay (ELISA) (DuPont).

[3] = system: H-9/IIIB cells (H-9 cells infected with HIV-1IIIB); assay: Viability and growth of chronically HIV-1-infected H-9/IIIB cells (trypan-blue exclusion); type: cell-based, human
Experimental: The uninfected human T-lymphoid cell-line, H-9, or H-9 cells infected with an HIV-1 strain, HIV-1IIIB (H-9/IIIB) (Science 1984; 224:497-500), were seeded in 24 or 96 well tissue culture plates at a density of 2-2.5×10^5 /ml and maintained in RPMI-1640 tissue culture medium supplemented with 10% fetal bovine serum (FBS), with or without a variety of concentrations of γ-GCE, GSH, or NAC. Every two or three days, 50-80% of cell suspensions were removed, and the same amount of fresh medium, with the same concentrations of the compound to be analyzed were added for further incubation. At the same time-points, viable cells were counted for calculating the relative cell growth value, by the trypan-blue exclusion method. At the same time, cell viability was also monitored as the percentage of viable cells in the total cell population. […]

[4] = system: HIV-1 production of H-9/IIIB cells; assay: HIV-1 p24 antigen production from H-9/IIIB cells at low, non-toxic doses; type: cell-based, HIV-1 (HIV-1IIIB); conditions: for HIV-1 production (p24 antigen) of H-9/IIIB cells: days three and six
Experimental: H-9/IIIB cells were washed with PBS and seeded at a density of 2×10^5 /ml in RPMI-1640/10% FBS with or without 0.2or 0.4 mM of γ-GCE. Three and six days after initiation of experiments, culture supernatants were sampled and assayed, as described above. On day three, 72% of each cell suspension was removed, and fresh medium with a corresponding GSH pro-drug was added. Total HIV-1 p24 antigen production values on day six were deduced by multiplying raw values, on day six, with the dilution factor on day three.

[5] = system: HIV-1 strain NL-4-3 in H-9 cells; assay: Acute HIV-1 infection of H-9 cells; type: cell-based, HIV-1 (NL4-3)
Experimental: Virus stocks of the HIV-1NL4-3strain were prepared and titered as described previously (Hum Gene Ther 1995; 6: 1561-1571). H-9 cells (3×10^5cells.) were suspended in 1 ml of growth medium with or without γ-GCE at a variety of concentrations, and seeded in a chamber of a 24-well tissue culture plate. Virus suspension containing 30 pg of HIV-1 p24 antigen was added to each chamber, for the initial infection. Infection was carried out overnight at 37° C., then the cells were washed once with PBS, and once more with growth medium. The supernatant of the final wash was saved as a day 0 time-point. Washed cells were resuspended with corresponding media for further incubation at 37° C. Once in three days, cell suspensions and supernatants were harvested for cell counting and HIV-1 p24 antigen quantification. Measurement of cell growth, viability, and virus production were performed as described in a previous subsection. On the days of harvest, 200 μl of cell suspension was left in each well, and 800 μl of fresh medium with corresponding concentrations of γ-GCE was added to support cell growth, except day 18, on which 400 μl of cell suspension was left and 600 μl of medium was added to each well. Cell numbers at each time-point were determined accordingly, based on the accumulation of dilution factors along with the frequency of passage.

[6] = system: HIV-1 virus stock (NL4-3); assay: Direct inactivation of HIV-1 by pre-incubation, then acute infection of H9 cells; type: cell-based, HIV-1 (NL4-3); conditions: for infectivity of HIV-1 after pre-incubation: 4 hours at 37° C., no viral production 15 days post-infection
Experimental: An HIV-1 virus stock (NL4-3) containing 6 ng of HIV-1 p24 antigen was pre-incubated in the presence or absence of γ-GCE in 20 ml of RPMI-1640/10% FBS for 4 hr at 37° C. Afterwards, acute infection of H9 cells were carried out, using […] of each pretreated virus suspension into 1 ml of the cell suspension without γ-GCE, as described in the previous subsection. Sampling and maintenance of cell culture were also performed, following the same procedure as described in the previous subsection, without adding any γ-GCE through passage.

[7] = some decrease in relative cell growth, minimal decrease in viability after 6 days

Structure (SMILES): N[C@@H](CCC(=O)N[C@@H](CS)C(=O)NCC(=O)O)C(=O)O [GSH, glutathione]
- effect on cell viability and growth of uninfected H-9 cells ([1]; 2.5 mM): no negative effects on growth
- cell viability (percentage of viable cells) ([1]; uninfected H-9 cells, 2.5 mM): ≥ 90%
- HIV-1 production (p24 antigen) from H-9/IIIB cells ([2]; 1.25 mM): neither GSH (triangles) nor NAC (rectangles) can overwhelm the vigorous HIV-1 production; also recorded: Neither GSH nor NAC could overwhelm the vigorous HIV-1 production; also recorded: did not alter viral expression
- HIV-1 production (p24 antigen) from H-9/IIIB cells ([2]; 2.5 mM): increased the virus production
- production of HIV-1 from chronically infected cells [2]: neither GSH nor other GSH precursors show inhibitory effects

Structure (SMILES): CC(=O)N[C@@H](CS)C(=O)O [NAC, N-acetylcysteine]
- effect on cell viability and growth of uninfected H-9 cells ([1]; 2.5 mM): no negative effects on growth
- cell viability, lowest value ([1]; uninfected H-9 cells, 2.5 mM, Day 4): 91.75±0.45%
- cell viability (percentage of viable cells) ([1]; uninfected H-9 cells, 2.5 mM): ≥ 90%
- HIV-1 production (p24 antigen) from H-9/IIIB cells ([2]; 1.25 mM): neither GSH (triangles) nor NAC (rectangles) can overwhelm the vigorous HIV-1 production; also recorded: Neither GSH nor NAC could overwhelm the vigorous HIV-1 production; also recorded: did not alter viral expression
- HIV-1 production (p24 antigen) from H-9/IIIB cells ([2]; 2.5 mM): increased the virus production

Structure (SMILES): CCOC(=O)[C@H](CS)NC(=O)CC[C@H](N)C(=O)O [γ-GCE, γ-L-glutamyl-L-cysteine ethyl ester]
- effect on cell viability and growth of uninfected H-9 cells ([1]; 2.5 mM): unaffected; also recorded: no negative effects on cell viability and growth
- concentration giving equivalent cytotoxic profile on H-9 cells [1, 7]: ~5000 µM
- cell viability (percentage of viable cells) ([1]; uninfected H-9 cells, 2.5 mM): ≥ 90%
- discrepancy of the thresholds of the toxic doses between infected and uninfected cells [3]: more than ten-fold
- cell viability of H-9/IIIB cells ([3]; 200 μM and 400 μM (either dose)): > 86%
- cell growth of H-9/IIIB cells ([3]; 400 μM): Slower cell growth
- cell growth of H-9/IIIB cells ([3]; 800 μM): dramatically impairs growth; also recorded: dramatically impaired
- cell growth of H-9/IIIB cells ([3]; 800 μM, after 12 days of treatment): no significant cell growth
- sensitivity of H-9/IIIB cells to γ-GCE relative to uninfected cells (selective toxicity) ([3]; 5 mM on H-9 vs 400 μM on H-9/IIIB, equivalent cytotoxic profiles): approximately 12.5 times
- cell growth relative to control ([3]; H-9/IIIB, 800 μM, day six): less than 40 % of the control
- concentration giving equivalent cytotoxic profile on H-9/IIIB cells [3, 7]: ~400 µM
- HIV-1 production (p24 antigen) from H-9/IIIB cells ([2]; 1.25 mM): almost completely shut-off
- HIV-1 production (p24 antigen) from H-9/IIIB cells ([2]; 2.5 mM): almost completely shut-off
- production of HIV-1 from chronically infected cells [2]: potently inhibits the production of HIV-1
- HIV-1 production (p24 antigen) of H-9/IIIB cells ([4]; 200 μM): significantly inhibited
- HIV-1 production (p24 antigen) of H-9/IIIB cells ([4]; 400 μM): significantly inhibited
- viral production from chronically HIV1-expressing cells ([4]; lower concentrations (200-400 μM), viability not affected): significantly represses
- propagation of HIV-1 (total HIV-1 p24 antigen) ([5]; 1.6 mM, 21 days postinfection): completely blocked
- syncytia-formation ([5]; 1.6 mM, data not illustrated): not significantly observed
- growth and viability of HIV-1-inoculated H-9 cells ([5]; 1.6 mM, entire experiments): continued to grow actively, maintaining high viability
- acute infection (total HIV-1 p24 antigen) ([5]; 400-800 μM): not inhibited significantly
- propagation of HIV-1 in acute infection of T-lymphocytic cells ([5]; relatively high doses): entirely blocked
- propagation of HIV-1 in H-9 cells after pre-incubation of virus ([6]; 625 μM, 4 hours): only some delay of the onset
- infectivity of HIV-1 after pre-incubation ([6]; 1.25 mM): completely inactivates; also recorded: loss of infectivity
- infectivity of HIV-1 after pre-incubation ([6]; 2.5 mM): completely inactivates; also recorded: loss of infectivity
- time in which infectivity of HIV-1 is directly inhibited ([6]; relatively high doses): within four hours
- viral infectivity after pre-incubation ([6]; same concentrations (625 μM-2.5 mM), one hour, data not illustrated): did not show significant interference
